Reference: patent US20020137929A1, “1 - (3-heterocyclylphenyl) isothiourea, -isourea, -guanidine and -amidine herbicidal agents” (Intellectual Property Department, BASF Aktiengesellschaft, priority 1998, published 2002)

What was measured:
ZEAMX (Corn, Field) = assay: Preemergence herbicidal evaluation; type: in vivo, Zea mays; conditions: rated 4-5 weeks after treatment
How it was run: (§1)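 Sown cups got a single aqueous acetone spray of test compound (roughly 0.0156–0.500 kg/ha) before seedlings emerged. Evaluation, 4–5 weeks on, used a 0–9 visual scale covering plant stand, vigor, size, malformation, chlorosis and general appearance compared with controls.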

GALAP (Galium) [1] = assay: Postemergence herbicidal evaluation; type: in vivo, Galium aparine; conditions: postemergence
How it was run: (§2)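 Scores (0–9) reflect plant stand, vigor, malformation, size, chlorosis and general appearance relative to control, read 4 to 5 weeks after treatment and averaged where tests were repeated. Application: about 0.0156–0.500 kg/ha sprayed at 40 psi onto two-week seedlings.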

ORYSAT (Rice, Tebonnet) = assay: Postemergence herbicidal evaluation; type: in vivo, Oryza sativa, (L.) Tebonnet; conditions: postemergence
How it was run: as §2

CYPSE (Flatsedge) [2] = assay: Preemergence weed control under flooded paddy conditions; type: in vivo, Cyperus serotinus; conditions: rated 3-4 weeks after treatment
How it was run: (§3)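 Ratings on a 0-9 visual scale cover stand, vigor, malformation, size, chlorosis and overall appearance relative to a control, taken three to four weeks post-treatment. Application was into flood water over freshly sown silt loam at roughly 0.0313 to 0.500 kg/ha.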

GALAP (Galium) [3] = assay: Preemergence herbicidal evaluation; type: in vivo, Galium aparine; conditions: rated 4-5 weeks after treatment
How it was run: as §1

ECHCG (Barnyardgrass) = assay: Postemergence herbicidal evaluation; type: in vivo, Echinochloa crus-galli; conditions: postemergence
How it was run: as §2

[4] = system: SAGPY (Arrowhead (Pygmaea)); assay: Preemergence weed control under flooded paddy conditions; type: in vivo, Sagittaria pygmaea; conditions: rated 3-4 weeks after treatment
How it was run: as §3

AMBEL (Ragweed, Common) = assay: Postemergence herbicidal evaluation; type: in vivo, Ambrosia artemisifolia; conditions: postemergence
How it was run: as §2

CYPIR (Rice Flatsedge) = assay: Preemergence weed control under flooded paddy conditions; type: in vivo, Cyperus iria; conditions: rated 3-4 weeks after treatment
How it was run: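 First, seeds or propagules go into the top 0.5 cm of silt loam; next, water is held 1.5 to 3 cm over the soil; then compound (50/50 acetone/water) is pipetted into it at about 0.0313 to 0.500 kg/ha; finally plants are rated visually 0-9 after three to four weeks.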

SETVI (Foxtail, Green) = assay: Postemergence herbicidal evaluation; type: in vivo, Setaria viridis; conditions: postemergence
How it was run: as §2

CYPSE (Flatsedge) [5] = assay: Postemergence weed control under flooded paddy conditions; type: in vivo, Cyperus serotinus; conditions: postemergence weeds, rated 3 to 4 weeks after treatment
How it was run: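 Injury ratings (0–9 scale covering stand, vigor, malformation, size, chlorosis and overall appearance versus control) were made three to four weeks after treatment. Test material, about 0.0313 to 0.500 kg/ha a.i. in 50/50 v/v aqueous/acetone, was added to flood water 1.5 to 3 cm deep over 3 to 5 cm weeds and 1.5 to 2.5 leaf rice.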

[6] = system: GLXMAW (Soybean, Williams); assay: Postemergence herbicidal evaluation; type: in vivo, Glycine max, (L.) Merr. cv Williams; conditions: postemergence
How it was run: as §2

CASOB (Sicklepod) [7] = assay: Postemergence herbicidal evaluation; type: in vivo, Cassia obtusifolia; conditions: postemergence
How it was run: as §2

CASOB (Sicklepod) [8] = assay: Preemergence herbicidal evaluation; type: in vivo, Cassia obtusifolia; conditions: rated 4-5 weeks after treatment
How it was run: as §1

[9] = system: CHEAL (Lambsquarters, Common); assay: Postemergence herbicidal evaluation; type: in vivo, Chenopodium album; conditions: postemergence
How it was run: as §2

Compound: Cn1c(C(F)(F)F)cc(=O)n(-c2cc(N=C3SCC(=O)N3CC(=O)OCC#N)c(Cl)cc2F)c1=O [Compound 109, 2-{{2-Chloro-5-[3,6-dihydro-3-methyl-2,6-dioxo-4-(trifluoromethyl)-1(2H)-pyrimidinyl]-4-fluorophenyl}imino}-4-oxo-3-thiazolidineacetic acid, ester with glycolonitrile]
- Preemergence herbicidal rating ZEAMX (ZEAMX (Corn, Field); rate 0.0156 kg/ha): 3.0
- Preemergence herbicidal rating ZEAMX (ZEAMX (Corn, Field); rate 0.0313 kg/ha): 3.5
- Preemergence herbicidal rating ZEAMX (ZEAMX (Corn, Field); rate 0.0625 kg/ha): 4.0
- Preemergence herbicidal rating ZEAMX (ZEAMX (Corn, Field); rate 0.1250 kg/ha): 6.0
- Preemergence herbicidal rating ZEAMX (ZEAMX (Corn, Field); rate 0.2500 kg/ha): 6.5
- Preemergence herbicidal rating ZEAMX (ZEAMX (Corn, Field); rate 0.5000 kg/ha): 7.0
- herbicidal rating GALAP (GALAP (Galium) [1]; rate 0.0158 kg/ha): 1.0
- herbicidal rating GALAP (GALAP (Galium) [1]; rate 0.0315 kg/ha): 3.0
- herbicidal rating GALAP (GALAP (Galium) [1]; rate 0.0630 kg/ha): 5.0
- herbicidal rating ORYSAT (ORYSAT (Rice, Tebonnet); rate 0.0158 kg/ha): 3.0
- herbicidal rating ORYSAT (ORYSAT (Rice, Tebonnet); rate 0.0315 kg/ha): 4.5
- herbicidal rating ORYSAT (ORYSAT (Rice, Tebonnet); rate 0.0630 kg/ha): 5.0
- CYPSE herbicidal effect rating (CYPSE (Flatsedge) [2]; 0.0313 kg/ha): 4.5
- CYPSE herbicidal effect rating (CYPSE (Flatsedge) [2]; 0.0625 kg/ha): 5.5
- CYPSE herbicidal effect rating (CYPSE (Flatsedge) [2]; 0.1250 kg/ha): 9.0
- CYPSE herbicidal effect rating (CYPSE (Flatsedge) [2]; 0.2500 kg/ha): 6.5
- Preemergence herbicidal rating GALAP (GALAP (Galium) [3]; rate 0.0156 kg/ha): 3.0
- Preemergence herbicidal rating GALAP (GALAP (Galium) [3]; rate 0.0313 kg/ha): 3.0
- Preemergence herbicidal rating GALAP (GALAP (Galium) [3]; rate 0.0625 kg/ha): 3.0
- Preemergence herbicidal rating GALAP (GALAP (Galium) [3]; rate 0.1250 kg/ha): 4.0
- Preemergence herbicidal rating GALAP (GALAP (Galium) [3]; rate 0.2500 kg/ha): 4.0
- herbicidal rating ECHCG (ECHCG (Barnyardgrass); rate 0.0158 kg/ha): 0.0
- herbicidal rating ECHCG (ECHCG (Barnyardgrass); rate 0.0315 kg/ha): 3.0
- herbicidal rating ECHCG (ECHCG (Barnyardgrass); rate 0.0630 kg/ha): 3.0
- SAGPY herbicidal effect rating ([4]; 0.0313 kg/ha): 4.5
- SAGPY herbicidal effect rating ([4]; 0.0625 kg/ha): 7.5
- SAGPY herbicidal effect rating ([4]; 0.1250 kg/ha): 9.0
- SAGPY herbicidal effect rating ([4]; 0.2500 kg/ha): 9.0
- herbicidal rating AMBEL (AMBEL (Ragweed, Common); rate 0.0158 kg/ha): 9.0
- herbicidal rating AMBEL (AMBEL (Ragweed, Common); rate 0.0315 kg/ha): 9.0
- herbicidal rating AMBEL (AMBEL (Ragweed, Common); rate 0.0630 kg/ha): 9.0
- CYPIR herbicidal effect rating (CYPIR (Rice Flatsedge); 0.0313 kg/ha): 5.0
- CYPIR herbicidal effect rating (CYPIR (Rice Flatsedge); 0.0625 kg/ha): 7.0
- CYPIR herbicidal effect rating (CYPIR (Rice Flatsedge); 0.1250 kg/ha): 9.0
- CYPIR herbicidal effect rating (CYPIR (Rice Flatsedge); 0.2500 kg/ha): 9.0
- herbicidal rating SETVI (SETVI (Foxtail, Green); rate 0.0158 kg/ha): 6.0
- herbicidal rating SETVI (SETVI (Foxtail, Green); rate 0.0315 kg/ha): 7.0
- herbicidal rating SETVI (SETVI (Foxtail, Green); rate 0.0630 kg/ha): 9.0
- Herbicidal rating CYPSE (CYPSE (Flatsedge) [5]; Rate 0.0313 kg/ha): 0.0
- Herbicidal rating CYPSE (CYPSE (Flatsedge) [5]; Rate 0.0625 kg/ha): 0.0
- Herbicidal rating CYPSE (CYPSE (Flatsedge) [5]; Rate 0.2500 kg/ha): 7.0
- herbicidal rating GLXMAW ([6]; rate 0.0158 kg/ha): 7.0
- herbicidal rating GLXMAW ([6]; rate 0.0315 kg/ha): 8.0
- herbicidal rating GLXMAW ([6]; rate 0.0630 kg/ha): 8.0
- herbicidal rating CASOB (CASOB (Sicklepod) [7]; rate 0.0158 kg/ha): 1.0
- herbicidal rating CASOB (CASOB (Sicklepod) [7]; rate 0.0315 kg/ha): 7.0
- herbicidal rating CASOB (CASOB (Sicklepod) [7]; rate 0.0630 kg/ha): 9.0
- Preemergence herbicidal rating CASOB (CASOB (Sicklepod) [8]; rate 0.0156 kg/ha): 6.5
- Preemergence herbicidal rating CASOB (CASOB (Sicklepod) [8]; rate 0.0313 kg/ha): 4.0
- Preemergence herbicidal rating CASOB (CASOB (Sicklepod) [8]; rate 0.0625 kg/ha): 5.5
- Preemergence herbicidal rating CASOB (CASOB (Sicklepod) [8]; rate 0.1250 kg/ha): 6.5
- Preemergence herbicidal rating CASOB (CASOB (Sicklepod) [8]; rate 0.2500 kg/ha): 9.0
- Preemergence herbicidal rating CASOB (CASOB (Sicklepod) [8]; rate 0.5000 kg/ha): 9.0
- herbicidal rating CHEAL ([9]; rate 0.0158 kg/ha): 9.0
- herbicidal rating CHEAL ([9]; rate 0.0315 kg/ha): 9.0
- herbicidal rating CHEAL ([9]; rate 0.0630 kg/ha): 9.0
